Reference: patent US8901118B2, “Compounds and methods for kinase modulation, and indications therefor” (Plexxikon Inc., priority 2010, dated 2014)

Assays:
[1] = test system: Osteoclast precursor cells; test: Osteoclast differentiation assay (acid phosphatase readout); assay type: cell-based
Method: Further, an osteoclast differentiation assay is used to assess the efficacy of Fms inhibitors for treating bone disease such as osteoarthritis. On day 0, Osteoclast Medium BulletKit (Lonza catalog #PT-8001, containing Media, FBS, L-Glutamine, PenStrep, RANKL, and M-CSF) media is thawed and the FBS, L-glutamine and PenStrep from the kit is added to 100 mL of Osteoclast Precursor Basal medium to provide the Osteoclast Precursor Growth Medium (OPGM). This is warmed to 37° C. Osteoclast precursor cells (Lonza catalog #2T-110) frozen in cryovial are warmed to 37° C. and transferred to a 50 mL conical tube. The cryovial is rinsed with OPGM and added dropwise to the conical tube of cells with swirling, then the volume is adjusted to 20-30 mL with addition of OPGM. The cells are centrifuged at 200×g for 15 minutes at room temperature and all but approximately 3 mL of supernatant is removed to a new conical tube. The cells are suspended in the remaining supernatant and the volume is adjusted to 10-15 mL with OPGM added dropwise with swirling. The cells are centrifuged at 200×g for 15 minutes at room temperature and all but approximately 1 mL of supernatant is removed. The cells are resuspended in the remaining supernatant, counted, and the volume adjusted with an appropriate amount of OPGM to provide approximately 1×10^5 cells/mL. A 0.1 mL aliquot of cells is added to each well of a 96-well plate. Compound to be tested is prepared in DMSO for plating at a high concentration of 2.5 mM, with 8 point 1:3 serial dilutions. A 1 μL aliquot of each compound dilution is added to a 96 well v-bottom polypropylene plate and 0.124 mL of OPGM is added to the compound. Then 50 μL at of the compound in OPGM is added to the osteoclast precursor cells in 96-well plate (providing highest test concentration of 5 μM). RANKL (2 μg) from the BulletKit is reconstituted in 1 mL of OPGM, then vortexed and centrifuged briefly. A 792 μL at aliquot of RANKL is added to 6 mL of OPGM and 50 μL at is added to low control wells. Then 76.6 μL M-CSF (10 μg/mL) from the BulletKit is added to the remaining 5.8 mL of OPGM/RANKL solution (4×RANKL/M-CSF/OPGM). A 50 μL at aliquot of this is added to the remaining wells, and the remainder is stored at 4° C. for later use. The plate is incubated at 37° C. for 6 days, then the remaining OPGM/RANKL/M-CSF solution is warmed to 37° C. The remaining approximately 198 μL is combined with 6 mL of OPGM. The media is aspirated from the osteoclast wells and 100 μL of RANKL/OPGM is added to the low controls. The remaining RANKL/OPGM is combined with the approximately 18.5 μL of remaining M-CSF. The remaining 4×RANKL/M-CSF/OPGM from day 0 is diluted to 1× and combined with the freshly prepared solution. A 0.1 mL aliquot of this is added to each osteoclast well and incubated for 37° C. for 1 day. The Acid Phosphatase kit (Cayman Chemical catalog #10008051) is warmed to room temperature. The assay buffer is diluted 5 mL with 45 mL of water. For each plate, two substrate tablets are dissolved in 4.5 mL of the assay buffer, mixing by vortex to break up the tablet. Stop solution is diluted 12 mL with 36 mL of water. In a tissue culture hood, 20 μL of each osteoclast well supernatant is transferred to a 96 well plate. A 30 μL aliquot of the substrate solution is added to each well and incubated at 37° C. for 20 minutes, then added 100 μL stop solution to each well. The absorbance of each well is read at 405 nm on Safire plate reader. The absorbance reading is plotted vs. concentration to provide the IC50 for each compound.

[2] = Relative solubility by turbidity in aqueous buffers (pH 1.5, 4.5, 6.8, 7.4); assay type: physicochemical; settings: for turbidity threshold (L, M, H) 1.4: pH 1.5 (SGF); for turbidity threshold (L, M, H) 4.5: pH 4.5 (SIF); for turbidity threshold (L, M, H) 6.8: pH 6.8 (SIF); for turbidity threshold (L, M, H) 7.4: pH 7.4 (HEPES)
Method in brief: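 Reported value: concentration at which optical density at 490, 535 and 650 nm passes 0.01, taken as the mean of the three wavelengths. Buffers were 0.5M NaCl pH 1.5, 0.05M NaH2PO4 pH 4.5 or 6.8, and 10 mM HEPES/150 mM NaCl pH 7.4, each receiving serial 1:1 DMSO dilutions of a 25 mM stock.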

Row | Structure (SMILES) | IC50 [1] [µM] | turbidity threshold (L, M, H) 1.4 [2] | turbidity threshold (L, M, H) 4.5 [2] | turbidity threshold (L, M, H) 6.8 [2] | turbidity threshold (L, M, H) 7.4 [2]
1 | Cc1cnc2[nH]cc(Cc3ccc(Nc4ccc(C)nc4)nc3F)c2c1 [Compound P-3041, [6-Fluoro-5-(5-methyl-1H-pyrrolo[2,3-b]pyridin-3-ylmethyl)-pyridin-2-yl]-(6-methyl-pyridin-3-yl)-amine] | < 0.1 |  |  |  | 
2 | COc1ncnc2[nH]cc(Cc3ccc(Nc4ccc(C5CC5)nc4)nc3F)c12 [Compound P-4004, (6-Cyclopropyl-pyridin-3-yl)-[6-fluoro-5-(4-methoxy-7H-pyrrolo[2,3-d]pyrimidin-5-ylmethyl)-pyridin-2-yl]-amine] | < 0.1 | M (moderate solubility if the threshold concentration is 31.3 μM to 250 μM) | M (moderate solubility if the threshold concentration is 31.3 μM to 250 μM) | L (low solubility if the threshold concentration is <31.3 μM) | L (low solubility if the threshold concentration is <31.3 μM)
3 | COc1ncnc2[nH]cc(Cc3ccc(Nc4ccc(C)nc4)nc3F)c12 [Compound P-4010, [6-Fluoro-5-(4-methoxy-7H-pyrrolo[2,3-d]pyrimidin-5-ylmethyl)-pyridin-2-yl]-(6-methyl-pyridin-3-yl)-amine] | < 0.1 | H (high solubility if the threshold concentration is >250 μm) | M (moderate solubility if the threshold concentration is 31.3 μM to 250 μM) | L (low solubility if the threshold concentration is <31.3 μM) | L (low solubility if the threshold concentration is <31.3 μM)
4 | COCCOc1ncnc2[nH]cc(Cc3ccc(Nc4ccc(C)nc4)nc3F)c12 [Compound P-4015, {6-Fluoro-5-[4-(2-methoxy-ethoxy)-7H-pyrrolo[2,3-d]pyrimidin-5-ylmethyl]-pyridin-2-yl}-(6-methyl-pyridin-3-yl)-amine] | < 0.1 | M (moderate solubility if the threshold concentration is 31.3 μM to 250 μM) | M (moderate solubility if the threshold concentration is 31.3 μM to 250 μM) | M (moderate solubility if the threshold concentration is 31.3 μM to 250 μM) | M (moderate solubility if the threshold concentration is 31.3 μM to 250 μM)
5 | Cc1ccc(Nc2ccc(Cc3c[nH]c4ncc(Cl)cc34)c(F)n2)cn1 [Compound P-3042, [5-(5-Chloro-1H-pyrrolo[2,3-b]pyridin-3-ylmethyl)-6-fluoro-pyridin-2-yl]-(6-methyl-pyridin-3-yl)-amine] | < 0.1 |  |  |  | 
6 | CCOc1ccc(Nc2ncc(Cc3c[nH]c4ncc(C)cc34)cn2)cn1 [Compound P-3027, (6-Ethoxy-pyridin-3-yl)-[5-(5-methyl-1H-pyrrolo[2,3-b]pyridin-3-ylmethyl)-pyrimidin-2-yl]-amine] | < 0.1 |  |  |  | 
7 | CCOc1ccc(Nc2ccc(Cc3c[nH]c4ncc(C)cc34)c(F)n2)cn1 [Compound P-3039, (6-ethoxy-pyridin-3-yl)-[6-fluoro-5-(5-methyl-1H-pyrrolo[2,3-b]pyridin-3-ylmethyl)-pyridin-2-yl]-amine] | < 0.1 | H (high solubility if the threshold concentration is >250 μm) | M (moderate solubility if the threshold concentration is 31.3 μM to 250 μM) | M (moderate solubility if the threshold concentration is 31.3 μM to 250 μM) | M (moderate solubility if the threshold concentration is 31.3 μM to 250 μM)
8 | Clc1cnc2[nH]cc(Cc3cnc(NC4CCCCCC4)nc3)c2c1 [Compound P-3006, [5-(5-Chloro-1H-pyrrolo[2,3-b]pyridin-3-ylmethyl)-pyrimidin-2-yl]-cycloheptyl-amine] | < 0.1 |  |  |  | 
9 | COc1ccc(Nc2ccc(Cc3c[nH]c4ncnc(OC)c34)c(F)n2)cn1 [Compound P-4001, [6-Fluoro-5-(4-methoxy-7H-pyrrolo[2,3-d]pyrimidin-5-ylmethyl)-pyridin-2-yl]-(6-methoxy-pyridin-3-yl)-amine] | < 0.1 | M (moderate solubility if the threshold concentration is 31.3 μM to 250 μM) | M (moderate solubility if the threshold concentration is 31.3 μM to 250 μM) | M (moderate solubility if the threshold concentration is 31.3 μM to 250 μM) | M (moderate solubility if the threshold concentration is 31.3 μM to 250 μM)
10 | CCn1cc(Nc2ncc(Cc3c[nH]c4ncc(C)cc34)cn2)cn1 [Compound P-3036, (1-Ethyl-1H-pyrazol-4-yl)-[5-(5-methyl-1H-pyrrolo[2,3-b]pyridin-3-ylmethyl)-pyrimidin-2-yl]-amine] | < 0.1 |  |  |  | 
11 | CCOc1ncnc2[nH]cc(Cc3ccc(Nc4ccc(OC)nc4)nc3F)c12 [Compound P-4018, [5-(4-Ethoxy-7H-pyrrolo[2,3-d]pyrimidin-5-ylmethyl)-6-fluoro-pyridin-2-yl]-(6-methoxy-pyridin-3-yl)-amine] |  | M (moderate solubility if the threshold concentration is 31.3 μM to 250 μM) | L (low solubility if the threshold concentration is <31.3 μM) | L (low solubility if the threshold concentration is <31.3 μM) | L (low solubility if the threshold concentration is <31.3 μM)
12 | COc1ccc(Nc2ccc(C(=O)c3c[nH]c4ncc(C)cc34)c(F)n2)cn1 [Compound P-3040, [2-Fluoro-6-(6-methoxy-pyridin-3-ylamino)-pyridin-3-yl]-(5-methyl-1H-pyrrolo[2,3-b]pyridin-3-yl)-methanone] |  | M (moderate solubility if the threshold concentration is 31.3 μM to 250 μM) | M (moderate solubility if the threshold concentration is 31.3 μM to 250 μM) | M (moderate solubility if the threshold concentration is 31.3 μM to 250 μM) | M (moderate solubility if the threshold concentration is 31.3 μM to 250 μM)
13 | CCOc1ncnc2[nH]cc(C(=O)c3ccc(Nc4ccc(OC)nc4)nc3F)c12 [Compound P-4025, (4-Ethoxy-7H-pyrrolo[2,3-d]pyrimidin-5-yl)-[2-fluoro-6-(6-methoxy-pyridin-3-ylamino)-pyridin-3-yl]-methanone] |  | M (moderate solubility if the threshold concentration is 31.3 μM to 250 μM) | L (low solubility if the threshold concentration is <31.3 μM) | L (low solubility if the threshold concentration is <31.3 μM) | L (low solubility if the threshold concentration is <31.3 μM)
14 | COc1ccc(Nc2ccc(Cc3c[nH]c4ncnc(C)c34)c(F)n2)cn1 [Compound P-4002, [6-Fluoro-5-(4-methyl-7H-pyrrolo[2,3-d]pyrimidin-5-ylmethyl)-pyridin-2-yl]-(6-methoxy-pyridin-3-yl)-amine] |  | H (high solubility if the threshold concentration is >250 μm) | M (moderate solubility if the threshold concentration is 31.3 μM to 250 μM) | M (moderate solubility if the threshold concentration is 31.3 μM to 250 μM) | M (moderate solubility if the threshold concentration is 31.3 μM to 250 μM)
